# Test results taken from patent US6566074B1, “Methods of modulating cell attachment and migration” (The General Hospital Corporation, priority 1999, dated 2003).
# Tested on: FN−/−fibroblasts
# Format: cell-based, mouse
# Conditions: Rho experiment: substrate 120 kDa CBD of fibronectin; substance added as supplement (Figs 5B-5D)
substance,measurement,value
Lysophosphatidic acid [LPA],% of attached cells that assemble focal adhesions and actin stress fibers (spread morphology),95%
